Assay results reported in the NIST ThermoML archive (doi:10.1016/j.jct.2016.07.037).
± gives the expanded uncertainty stated by the source. One block for each compound: values may come before it.

How the values were obtained:
[1] = Crystal; for vapor or sublimation pressure: Calculated from knudsen effusion weight loss; for Normal melting temperature: DTA
[2] = Molar enthalpy of transition or fusion; conditions: Crystal; DSC
[3] = molar heat capacity at constant pressure; conditions: 298.15 K; 101.33 kPa; Crystal; Drop calorimetry
[4] = molar enthalpy of vaporization or sublimation; conditions: 298.15 K; Crystal; Static calorimetry

Structure (SMILES): OCC(F)(F)C(F)(F)C(F)(F)C(F)(F)C(F)(F)C(F)(F)C(F)(F)C(F)(F)F [2,2,3,3,4,4,5,5,6,6,7,7,8,8,9,9,9-heptadecafluoro-1-nonanol]
molar heat capacity at constant pressure [3]: 515.9 ± 12 J/K/mol

Structure (SMILES): OCC(F)(F)C(F)(F)C(F)(F)C(F)(F)C(F)(F)C(F)(F)C(F)(F)C(F)(F)C(F)(F)C(F)(F)C(F)(F)C(F)(F)C(F)(F)F
vapor or sublimation pressure ([1]; 328.6 K): 0.00014 ± 2.1e-05 kPa | vapor or sublimation pressure ([1]; 330.6 K): 0.000172 ± 2.1e-05 kPa | vapor or sublimation pressure ([1]; 332.5 K): 0.000231 ± 2.2e-05 kPa | vapor or sublimation pressure ([1]; 334.5 K): 0.000302 ± 2.3e-05 kPa | vapor or sublimation pressure ([1]; 336.5 K): 0.000391 ± 2.4e-05 kPa | vapor or sublimation pressure ([1]; 338.4 K): 0.000502 ± 2.7e-05 kPa | vapor or sublimation pressure ([1]; 340.4 K): 0.000642 ± 3e-05 kPa | Normal melting temperature [1]: 139.2 ± 0.5 °C | Molar enthalpy of transition or fusion [2]: 9.08 ± 0.454 kcal/mol | molar heat capacity at constant pressure [3]: 725.3 ± 17 J/K/mol | molar enthalpy [4]: 30.2 ± 0.932 kcal/mol

Further lines, results first:

vapor or sublimation pressure ([1]; 303.6 K): 6.95e-05 ± 2e-05 kPa | vapor or sublimation pressure ([1]; 306.1 K): 0.0001 ± 2e-05 kPa | vapor or sublimation pressure ([1]; 308.6 K): 0.000143 ± 2.1e-05 kPa | vapor or sublimation pressure ([1]; 311 K): 0.000196 ± 2.1e-05 kPa | vapor or sublimation pressure ([1]; 313.5 K): 0.000273 ± 2.2e-05 kPa | vapor or sublimation pressure ([1]; 316 K): 0.000376 ± 2.4e-05 kPa | vapor or sublimation pressure ([1]; 318.5 K): 0.000517 ± 2.7e-05 kPa | vapor or sublimation pressure ([1]; 321 K): 0.000727 ± 3.3e-05 kPa | vapor or sublimation pressure ([1]; 323.5 K): 0.001007 ± 7.8e-05 kPa | Normal melting temperature [1]: 114.2 ± 1.3 °C | Molar enthalpy of transition or fusion [2]: 5.88 ± 0.311 kcal/mol | molar heat capacity at constant pressure [3]: 645.2 ± 15 J/K/mol | molar enthalpy [4]: 26.4 ± 0.86 kcal/mol
Structure (SMILES): OCC(F)(F)C(F)(F)C(F)(F)C(F)(F)C(F)(F)C(F)(F)C(F)(F)C(F)(F)C(F)(F)C(F)(F)C(F)(F)F [1H,1H-perfluoro-1-dodecanol]

molar heat capacity at constant pressure [3]: 602.4 ± 14 J/K/mol
Structure (SMILES): OCC(F)(F)C(F)(F)C(F)(F)C(F)(F)C(F)(F)C(F)(F)C(F)(F)C(F)(F)C(F)(F)C(F)(F)F [1H,1H-perfluoroundecan-1-ol]

molar heat capacity at constant pressure [3]: 563.9 ± 13 J/K/mol
Structure (SMILES): OCC(F)(F)C(F)(F)C(F)(F)C(F)(F)C(F)(F)C(F)(F)C(F)(F)C(F)(F)C(F)(F)F [1H,1H-perfluoro-1-decanol]
